Assay: oral administration of norphenephrine and its salts to users: metabolic, appetite, mental and addiction effects
Type: in vivo, human

NCC(O)c1cccc(O)c1 (centres unmarked) [norphenephrine, Norphenephrine]
time until the user experiences a vastly reduced appetite for food (after intake): ≤ 30 min | interaction with caffeine (metabolic enhancement) (co-administration of caffeine): synergy between caffeine and norphenephrine is observed | addictive / habituating nature (even at high dosages, compared with amphetamines): not addictive, or even habituating | adipose tissue loss versus lean body mass (in vivo): specifically enhance the loss of adipose tissue while preserving lean body mass | focus, acuity and psychological outlook (in vivo): sustained and noticeable effect | overall metabolic rate (in vivo): increase a user's overall metabolic rate | insulin sensitivity (muscle tissue apart from adipose tissue): specifically increase insulin sensitivity in muscle tissue | fat mass (no changes to the user's current diet and exercise regimen): noticeable and quantifiable decrease in fat mass
